Assay results: PMC10866925, “Catalyst-free late-stage functionalization to assemble α-acyloxyenamide electrophiles for selectively profiling conserved lysine residues” (Communications Chemistry, 2024)

Tests used:
EGFR L858R mutant = EGFR L858R mutant (Homo sapiens, UniProt P00533, L858R); assay: Z'-LYTE FRET kinase assay, time dependent ([…] at […] min, […] at […] h); also labelling of recombinant protein, LC-MS/MS site mapping, CETSA, competitive pull-down; type: biochemical
[1] = molecular target: T1, ATP-dependent 6-phosphofructokinase, platelet type (PFKAP) (Homo sapiens, UniProt Q01813); assay: pull-down/LC-MS and pull-down/WB in cells, K688R mutant and siRNA knockdown; type: cell-based
T1 construct: gene PFKP; full-length
T1 sequence (Q01813 1-784): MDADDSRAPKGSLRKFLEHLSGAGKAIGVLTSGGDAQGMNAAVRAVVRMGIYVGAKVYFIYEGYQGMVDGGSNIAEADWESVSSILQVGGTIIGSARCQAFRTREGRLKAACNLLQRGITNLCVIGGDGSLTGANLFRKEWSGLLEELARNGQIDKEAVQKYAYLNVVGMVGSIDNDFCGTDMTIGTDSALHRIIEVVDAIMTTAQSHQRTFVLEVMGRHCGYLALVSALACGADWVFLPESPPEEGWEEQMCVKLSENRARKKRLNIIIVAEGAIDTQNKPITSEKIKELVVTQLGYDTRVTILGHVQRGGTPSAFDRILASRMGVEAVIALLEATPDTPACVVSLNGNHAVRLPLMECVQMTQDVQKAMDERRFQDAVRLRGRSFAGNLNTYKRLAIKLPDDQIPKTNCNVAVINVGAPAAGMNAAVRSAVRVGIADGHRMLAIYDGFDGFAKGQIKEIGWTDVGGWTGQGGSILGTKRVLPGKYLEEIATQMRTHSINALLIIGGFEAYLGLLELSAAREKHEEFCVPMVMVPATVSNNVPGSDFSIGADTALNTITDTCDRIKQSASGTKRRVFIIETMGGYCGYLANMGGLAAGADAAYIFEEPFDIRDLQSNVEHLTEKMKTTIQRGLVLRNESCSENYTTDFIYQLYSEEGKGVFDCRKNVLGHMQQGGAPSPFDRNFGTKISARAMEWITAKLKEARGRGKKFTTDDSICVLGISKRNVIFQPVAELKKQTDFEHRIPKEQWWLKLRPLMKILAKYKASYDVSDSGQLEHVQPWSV

CDK2 = molecular target: T2, CDK2 (Homo sapiens, UniProt P24941); assay: radiometric kinase assay ([…]-ATP, histone H1); also K33R pull-down/WB; type: biochemical
T2 construct: CDK2/cyclinA (h); with cyclin A

CDK1 = molecular target: T3, CDK1 (Homo sapiens, UniProt P06493); assay: radiometric kinase assay ([…]-ATP, histone H1); also MS of K33 modification, K33R pull-down/WB, CETSA; type: biochemical
T3 construct: CDK1/cyclinB (h); with cyclin B

CDK5 = molecular target: T4, CDK5 (Homo sapiens, UniProt Q00535); assay: radiometric kinase assay ([…]-ATP, histone H1); also K33R pull-down/WB; type: biochemical
T4 construct: CDK5/p25 (h); with p25
T4 sequence (Q00535 whole entry): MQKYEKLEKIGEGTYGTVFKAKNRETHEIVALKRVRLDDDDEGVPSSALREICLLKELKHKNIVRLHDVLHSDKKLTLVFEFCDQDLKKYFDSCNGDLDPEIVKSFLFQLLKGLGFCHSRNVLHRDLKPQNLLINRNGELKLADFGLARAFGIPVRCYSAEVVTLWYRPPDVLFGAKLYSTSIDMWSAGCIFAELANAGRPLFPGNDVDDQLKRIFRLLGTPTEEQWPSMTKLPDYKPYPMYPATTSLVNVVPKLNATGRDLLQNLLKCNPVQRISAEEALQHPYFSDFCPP
T4 sequence (Q15078 99-307 partner limits assumed): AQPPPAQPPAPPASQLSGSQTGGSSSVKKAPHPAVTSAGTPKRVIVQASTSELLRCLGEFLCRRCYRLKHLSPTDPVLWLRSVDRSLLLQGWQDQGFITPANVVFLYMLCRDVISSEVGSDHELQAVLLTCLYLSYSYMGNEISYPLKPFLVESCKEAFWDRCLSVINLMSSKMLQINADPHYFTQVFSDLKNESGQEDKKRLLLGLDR

Chain of EGFR L858R mutant (P00533 669-1210 L858R limits assumed): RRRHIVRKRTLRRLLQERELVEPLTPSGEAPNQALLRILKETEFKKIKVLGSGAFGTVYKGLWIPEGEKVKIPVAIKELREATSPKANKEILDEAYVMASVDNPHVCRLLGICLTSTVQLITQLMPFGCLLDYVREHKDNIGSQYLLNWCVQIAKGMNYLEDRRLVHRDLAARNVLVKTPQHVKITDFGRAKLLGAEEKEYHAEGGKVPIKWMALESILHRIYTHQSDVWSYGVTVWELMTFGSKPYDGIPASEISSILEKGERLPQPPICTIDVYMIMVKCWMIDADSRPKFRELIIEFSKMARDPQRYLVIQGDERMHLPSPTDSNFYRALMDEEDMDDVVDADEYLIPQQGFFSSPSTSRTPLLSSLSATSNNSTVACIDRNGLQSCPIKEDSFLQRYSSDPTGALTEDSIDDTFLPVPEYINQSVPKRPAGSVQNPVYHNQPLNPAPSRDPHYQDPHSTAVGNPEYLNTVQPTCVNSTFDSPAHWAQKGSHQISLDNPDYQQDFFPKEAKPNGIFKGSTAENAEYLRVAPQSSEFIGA
T3 sequence (P06493 whole entry): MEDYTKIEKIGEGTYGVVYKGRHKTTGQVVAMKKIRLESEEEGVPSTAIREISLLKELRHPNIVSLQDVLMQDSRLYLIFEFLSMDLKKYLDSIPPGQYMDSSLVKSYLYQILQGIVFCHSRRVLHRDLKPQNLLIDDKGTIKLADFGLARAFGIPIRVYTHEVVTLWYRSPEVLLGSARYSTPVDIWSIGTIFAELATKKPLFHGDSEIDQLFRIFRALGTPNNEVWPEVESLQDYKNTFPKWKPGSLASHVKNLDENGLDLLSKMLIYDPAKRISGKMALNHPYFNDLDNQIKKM
T3 sequence (P14635 whole entry partner): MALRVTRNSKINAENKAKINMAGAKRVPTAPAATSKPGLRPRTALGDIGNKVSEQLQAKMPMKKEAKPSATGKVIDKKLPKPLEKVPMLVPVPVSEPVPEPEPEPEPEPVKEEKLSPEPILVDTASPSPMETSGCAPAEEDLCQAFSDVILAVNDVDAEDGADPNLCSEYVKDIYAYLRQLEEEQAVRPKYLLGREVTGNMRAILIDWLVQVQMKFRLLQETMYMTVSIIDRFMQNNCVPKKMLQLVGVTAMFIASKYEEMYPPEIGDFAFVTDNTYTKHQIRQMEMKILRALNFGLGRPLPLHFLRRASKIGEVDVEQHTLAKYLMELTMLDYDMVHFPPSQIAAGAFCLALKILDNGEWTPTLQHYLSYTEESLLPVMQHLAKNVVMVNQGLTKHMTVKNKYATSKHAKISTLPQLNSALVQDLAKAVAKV

## C#Cc1cccc(Nc2ncnc3cc(OC)c(OCCCCC(=O)OC(=C)N(C)S(=O)(=O)c4ccc(C)cc4)cc23)c1 [E3]
EGFR L858R mutant
  IC50: 1.3 nM

## C#Cc1ccc(C(=O)OC(=C)N(C)S(=O)(=O)c2ccc(C)cc2)cc1 [A1]
[1]
  pull-down/LC-MS and pull-down/WB in cells, K688R mutant and siRNA knockdown: Mutation of PFKAP K688 in the protein binding pocket to K688R severely affects the probe labeling

## C#CCNC(=O)c1cc(Nc2cc(C3CC3)[nH]n2)nc(N2CCN(C(=O)CCC(=O)OC(=C)N(C)S(=O)(=O)c3ccc(C)cc3)CC2)n1 [X1]
CDK2
  IC50: 2 to 6 µM
CDK1
  IC50: 2 to 6 µM
CDK5
  IC50: 2 to 6 µM
